“And” between values parts separate entries of the source, which are not always exact repeats. Equal entries are not always repeated.
Experiments:
[1] = tested on: UMNs of hSOD1^G93A‐UeGFP mice; assay: EM quantification of mitochondria and ER in UMNs, hSOD1^G93A‐UeGFP mice; format: in vivo
Description: (§1) hSOD1^G93A‐UeGFP, prpTDP‐43^A315T‐UeGFP and WT‐UeGFP mice were weighed and the required NU‐9 dose per weight was calculated (20 or 100 mg/kg), which was administered once daily by oral gavage, starting at postnatal day (P)60 and continuing until P120. Animals from the untreated group received the vehicle (NMP and olive oil) only. For oral administration purposes, 20 ga × 38 mm plastic feeding tubes were used (Instech Laboratories, Inc). The gavage tip was inserted into the mouth directly over the tongue and into the pharynx. While observing the swallowing reflex, the tip was safely and smoothly slid into the esophagus. Once the administration was completed, the gavage tip was pulled straight out.
(§2) Mice were perfused with EM grade 4% PFA. One hemisphere of the brain was sectioned at 50 µm thickness coronally on a vibratome (Leica VT1000S, Leica Inc., Nussloch, Germany). The sections were postfixed in 2% PFA and 0.5% glutaraldehyde for 1 h, they were cryoprotected with glycerol–dimethylsulfoxide (DMSO) mixture followed by freeze–thaw at least four times, and treated with 1% sodium borohydride. They were then treated with 0.3% H2O2–10% methanol in TBS (100 mM Tris–HCl and 150 mM NaCl, pH 7.6) and 5% normal goat serum–1% bovine serum albumin in TBS to block nonspecific binding of primary antibody. This mixture was incubated overnight with rat anti‐Ctip2 antibody (1:500, Thermo Fisher Scientific, Rockford, IL, USA). Biotinylated goat anti‐rat IgG (1:500, Vector Laboratories, Burlingame, CA, USA) was used as the secondary antibody, and diaminobenzidine (DAB) was applied as the chromogen (ABC Elite kit, Vector Laboratories, Burlingame, CA, USA). Sections were then postfixed in buffered 2% osmium tetroxide (OsO4) (Electron Microscopy Sciences, Hatfield, PA, USA), rinsed with distilled water, and stained in 1% uranyl acetate (Electron Microscopy Sciences, Hatfield, PA, USA), again rinsed with distilled water, dehydrated in ascending grades of ethanol with transition fluid propylene oxide (Electron Microscopy Sciences, Hatfield, PA, USA), embedded in the resin mixture with Embed 812 (Electron Microscopy Sciences, Hatfield, PA, USA), and cured in a 60°C oven for 3 days. The sections in which primary motor cortex was present and visible under bright‐field illumination on a dissecting scope were selected. Approximately, 5‐mm‐wide × 7‐mm‐long pieces of the motor cortex from these sections were dissected under the microscope mounted on a resin block and were sectioned on a Leica Ultracut UC6 ultramicrotome (Leica Inc., Nussloch, Germany). The motor cortex was further trimmed, and only layer 5 was kept intact for preparing ultrathin sections. UMNs were identified based on the presence of Ctip2 immunohistochemistry (DAB) in their nuclei (Figure S1). Seventy‐nanometer‐thin sections were collected on 200‐mesh copper–palladium grids. Grids were counterstained with 8% radioactive depleted uranyl acetate and 0.2% lead citrate. Grids were examined on FEI Tecnai Spirit G2 TEM (FEI company, Hillsboro, OR, USA), and digital images were captured on a FEI Eagle camera.
(§3) EM images of Betz cells of normal control and patients, Ctip2‐positive (Ctip2^+) UMN of WT, and hSOD1^G93A‐UeGFP and prpTDP‐43^A315T‐UeGFP mice (Figure S1) were acquired from 70‐nm ultrathin sections of the motor cortex, and EM images were taken on FEI Tecnai Spirit G2 TEM using FEI Eagle camera. Mitochondria were quantified, as described previously. ^34 Mitochondria with intact outer and inner membrane and with intact cristae were considered healthy. Mitochondria with morphological defects, such as broken outer and/or inner membrane and cristae, were counted individually and were reported as percentage of defective mitochondria. ER that are disintegrated and that display profound expansion were considered unhealthy. Length of ER cisternae was measured using line tool of ImageJ software (NIH) upon calibration for pixels/micrometer using set scale function. […]

[2] = tested on: UMNs of prpTDP‐43^A315T‐UeGFP mice; assay: EM quantification of mitochondria and ER in UMNs, prpTDP‐43^A315T‐UeGFP mice; format: in vivo
Description: as §1, §2, §3

[3] = cited from earlier work
[4] = hSOD1G93A-UeGFP (NU-9 100 mg/kg/day)
[5] = hSOD1^G93A‐UeGFP mice, 100 mg/kg/day oral gavage P60–P120, at P120
[6] = prpTDP-43A315T-UeGFP mice, NU-9 100 mg/kg/day
[7] = prpTDP-43A315T-UeGFP untreated minus NU-9 100 mg/kg/day, Tukey's multiple comparisons test
[8] = prpTDP‐43^A315T‐UeGFP mice, 100 mg/kg/day oral gavage P60–P120

## C[C@H](Oc1cc(C(F)(F)F)cc(C(F)(F)F)c1)C1CC(=O)CC(=O)C1 [NU‐9]
[1]; [4]
  Fig. 2O group mean (total number of mitochondria/UMN): 21.13
  Fig. 2P group mean (percentage of healthy mitochondria/UMN): 86.3
  Fig. 2R group mean (average length of ER cisternae/UMN): 1.136
[1]; [5]
  average length of ER cisternae: 1.13 ± 0.1 µm
  number of healthy ER cisternae: 14 ± 2 ER cisternae/UMN/section
  percentage of healthy mitochondria in UMNs: 86% ± 3%
  total number of mitochondria in UMNs: 21 ± 2 mitochondria/UMN/section
[2]; prpTDP43A315T-UeGFP untreated minus NU-9 100 mg/kg/day, Tukey's multiple comparisons test
  Mean Diff., Fig. 6J, TDP-43 vs. TDP-43 -NU9: -0.8333
[2]; prpTDP-43A315T-UeGFP (NU-9 100 mg/kg/day)
  Fig. 6G group mean (total number of mitochondria/UMN): 31.85
[2]; [6]
  Mean, Fig. 6H (EM quantification in UMNs): 86.77
  Mean, Fig. 6I (EM quantification in UMNs): 31.16
  Mean, Fig. 6J (EM quantification in UMNs): 1.37
[2]; [7]
  Mean Diff., Fig. 6H, TDP-43 vs. TDP-43 -NU9: -64.89
  Mean Diff., Fig. 6I, TDP-43 vs. TDP-43 -NU9: -18.7
[2]; [8]
  average number of intact ER cisternae in UMNs: 36 ± 2 ER cisternae/UMN/section
  average percentage of healthy mitochondria: 87% ± 1%
  total mitochondria per UMN per section: 32 ± 3 mitochondria/UMN/section
[3]
  Brain penetration: 8 µM and 8.3 µM
  blood brain barrier crossing: crossed the blood brain barrier
[3]; in vivo, mice
  t 1/2: 2.7 h and 2.73 h
[3]; ip, mice, dose 500 mg/kg
  Blood levels (t max): 12 h (500 mg/kg)
[3]; mice
  Oral bioavailability: 94%
[3]; mouse
  CL (mouse): 44 mL/min/kg
[3]; po
  AUC: 3452 h‐ng/ml po

— PMC7898037, “Improving mitochondria and ER stability helps eliminate upper motor neuron degeneration that occurs due to mSOD1 toxicity and TDP‐43 pathology” (Clinical and Translational Medicine, 2021)
